What was measured:
Format in all cases: biochemical
TEC = molecular target: T1, TEC (Homo sapiens, UniProt P42680); test: Inhibition of a panel of kinases (in vitro HotSpot kinase assay, 33P-ATP, 1 μM ATP); conditions: for IC50: HotSpot kinase assay, 1 μM ATP
T1 sequence (P42680 1-631): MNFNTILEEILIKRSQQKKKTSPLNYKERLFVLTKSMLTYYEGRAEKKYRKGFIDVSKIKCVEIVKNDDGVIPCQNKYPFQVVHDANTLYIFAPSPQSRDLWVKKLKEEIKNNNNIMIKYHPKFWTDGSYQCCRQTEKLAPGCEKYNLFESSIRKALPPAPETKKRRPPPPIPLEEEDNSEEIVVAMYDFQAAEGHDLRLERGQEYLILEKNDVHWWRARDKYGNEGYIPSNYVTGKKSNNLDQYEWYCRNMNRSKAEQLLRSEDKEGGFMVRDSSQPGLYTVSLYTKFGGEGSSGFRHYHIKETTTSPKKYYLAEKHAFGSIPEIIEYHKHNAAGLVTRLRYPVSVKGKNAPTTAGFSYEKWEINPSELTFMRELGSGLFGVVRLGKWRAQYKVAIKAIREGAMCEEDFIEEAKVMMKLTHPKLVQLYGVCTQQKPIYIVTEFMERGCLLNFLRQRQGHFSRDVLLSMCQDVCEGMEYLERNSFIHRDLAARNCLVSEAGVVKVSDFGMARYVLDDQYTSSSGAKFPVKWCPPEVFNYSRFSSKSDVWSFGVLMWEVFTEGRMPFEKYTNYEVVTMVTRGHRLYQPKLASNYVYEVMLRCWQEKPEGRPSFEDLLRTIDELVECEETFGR
Procedure, shortened: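 Purified kinase enzymes were incubated with an appropriate substrate and 33P-labelled ATP at 1 μM ATP. Inhibition was measured radiometrically from incorporation of the 33P label.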

panel of kinases = molecular target: T2, panel of kinases (Homo sapiens, UniProt P51813); test: Inhibition of a panel of kinases (in vitro HotSpot kinase assay, 33P-ATP, 1 μM ATP), other kinases; conditions: BMX wild-type, read-out: BMX-WT IC50
T2 sequence (P51813 1-675): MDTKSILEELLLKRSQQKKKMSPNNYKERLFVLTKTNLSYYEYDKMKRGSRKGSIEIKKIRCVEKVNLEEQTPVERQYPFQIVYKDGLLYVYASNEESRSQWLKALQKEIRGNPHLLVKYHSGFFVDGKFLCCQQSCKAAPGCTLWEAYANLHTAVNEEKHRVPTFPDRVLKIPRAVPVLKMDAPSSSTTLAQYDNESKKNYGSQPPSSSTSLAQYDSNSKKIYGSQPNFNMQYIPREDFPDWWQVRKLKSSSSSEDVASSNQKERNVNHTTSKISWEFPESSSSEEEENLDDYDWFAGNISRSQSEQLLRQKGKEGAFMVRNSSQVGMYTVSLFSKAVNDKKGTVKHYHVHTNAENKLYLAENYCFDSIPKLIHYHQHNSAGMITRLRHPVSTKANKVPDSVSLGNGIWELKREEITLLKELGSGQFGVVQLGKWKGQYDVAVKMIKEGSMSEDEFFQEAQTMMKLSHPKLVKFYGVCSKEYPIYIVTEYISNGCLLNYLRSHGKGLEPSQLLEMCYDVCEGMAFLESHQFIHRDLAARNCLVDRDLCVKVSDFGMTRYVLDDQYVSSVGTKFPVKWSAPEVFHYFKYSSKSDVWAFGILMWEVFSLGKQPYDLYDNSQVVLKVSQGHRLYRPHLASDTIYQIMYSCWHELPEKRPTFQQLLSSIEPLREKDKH
Description: Example 63: Inhibition of a Panel of Kinases The degree of inhibition of a panel of kinases is determined using the in vitro HotSpot kinase assay (purified enzymes, ^33P-ATP, an appropriate substrate and 1 μM ATP).

Btk = molecular target: T3, Btk (Homo sapiens, UniProt Q06187); test: Btk in vitro inhibitory activity (one of Method A TR-FRET, Method B electrophoretic mobility shift, Method C radiometric filter binding); conditions: wild-type Btk; read-out: Btk-WT IC50
T3 construct: purified from insect cells as a full-length construct containing a N-terminal 6X-His tag; His6 (N); made in house; host or cells: insect cells (Method C)
T3 sequence (Q06187 whole entry): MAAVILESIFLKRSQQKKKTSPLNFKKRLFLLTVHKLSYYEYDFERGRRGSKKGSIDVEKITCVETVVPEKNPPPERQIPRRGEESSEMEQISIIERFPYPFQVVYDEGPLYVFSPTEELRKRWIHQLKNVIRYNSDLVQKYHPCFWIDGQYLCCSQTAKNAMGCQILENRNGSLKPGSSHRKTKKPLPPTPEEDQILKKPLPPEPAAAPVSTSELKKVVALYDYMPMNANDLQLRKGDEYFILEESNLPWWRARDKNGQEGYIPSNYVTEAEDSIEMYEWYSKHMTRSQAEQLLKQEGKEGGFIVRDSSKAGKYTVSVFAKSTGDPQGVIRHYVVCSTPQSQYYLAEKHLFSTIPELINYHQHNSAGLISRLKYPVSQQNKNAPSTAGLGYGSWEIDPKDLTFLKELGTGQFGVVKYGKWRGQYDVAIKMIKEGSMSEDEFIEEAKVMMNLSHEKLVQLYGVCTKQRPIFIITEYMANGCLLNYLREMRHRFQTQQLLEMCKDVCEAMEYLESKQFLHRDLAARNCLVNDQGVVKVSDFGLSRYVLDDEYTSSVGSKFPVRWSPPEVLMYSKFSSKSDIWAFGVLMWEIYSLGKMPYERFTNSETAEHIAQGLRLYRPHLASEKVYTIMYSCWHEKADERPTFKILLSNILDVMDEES
Procedure, shortened: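 Method A: TR-FRET with 0.5 nM Btk at [ATP]=Km, EDTA-quenched, 665/615 nm ratio; Ki(app) converted to IC50. Method B: 1 nM full-length His6 human BTK, 1 μM FAM peptide, pH 7.5, mobility-shift product/sum ratio, 12-point 4-parameter fit. Method C: radiometric filter binding, 8 nM His-tagged BTK, 0.2 mg/mL poly-Glu-Tyr.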

SMILES	TEC/Btk (TEC; ratio of TEC IC50 to Btk IC50 (selectivity))	IC50 (panel of kinases)	IC50 (Btk)	IC50 (TEC)
OCc1ccc(-c2ccnc3[nH]nc(N[C@H]4CC[C@H](O)CC4)c23)cc1F [Compound 11]	10	2.58 µM		
CC(=O)N[C@@H]1CCN(c2n[nH]c3nccc(-c4ccc(CNC(=O)c5nc6c(o5)CCCC6)c(F)c4)c23)C1 [Example 198, N-[(4-{3-[(3R)-3-acetamidopyrrolidin-1-yl]-1H-pyrazolo[3,4-b]pyridin-4-yl}-2-fluorophenyl)methyl]-4,5,6,7-tetrahydro-1,3-benzoxazole-2-carboxamide]		3.18 µM	0.137 µM	
C[C@@H](NC(=O)c1nc(C(C)(C)C)no1)c1ccc(-c2ccnc3[nH]nc(NC4CCOC4)c23)cc1 (stereo partly drawn) [Example 217, 3-tert-butyl-N-[(1R)-1-(4-{3-[(oxolan-3-yl)amino]-1H-pyrazolo[3,4-b]pyridin-4-yl}phenyl)ethyl]-1,2,4-oxadiazole-5-carboxamide]		6.81 µM	0.00645 µM	
C[C@@H](NC(=O)c1nc(C(C)(C)C)no1)c1ccc(-c2ccnc3[nH]nc(NC4CCOCC4)c23)cc1 [Example 218, 3-tert-butyl-N-[(1R)-1-(4-{3-[(oxan-4-yl)amino]-1H-pyrazolo[3,4-b]pyridin-4-yl}phenyl)ethyl]-1,2,4-oxadiazole-5-carboxamide]		6.6 µM	0.0191 µM	
C[C@@H](NC(=O)c1noc(C(C)(C)C)n1)c1ccc(-c2ccnc3[nH]nc(C4=CCCN(C(=O)N(C)C)C4)c23)cc1 [Example 254, 5-[4-(4-{(1R)-1-[(5-tert-butyl-1,2,4-oxadiazole-3-carbonyl)amino]ethyl}phenyl)-1H-pyrazolo[3,4-b]pyridin-3-yl]-N,N-dimethyl-3,6-dihydropyridine-1(2H)-carboxamide]		9.08 µM	0.0408 µM	
Cc1c(NC(=O)c2noc(C(C)(C)C)n2)cccc1-c1ccnc2[nH]nc(N[C@@H]3CCNC3)c12 [Example 266, 5-tert-butyl-N-[2-methyl-3-(3-{[(3R)-pyrrolidin-3-yl]amino}-1H-pyrazolo[3,4-b]pyridin-4-yl)phenyl]-1,2,4-oxadiazole-3-carboxamide]		5.04 µM		
CC(C)(C)c1ccc(C(=O)NCc2ccc(-c3ccnc4[nH]nc(NC5CCNC5)c34)cn2)cc1 (stereo not shown) [Example 268, 4-tert-butyl-N-[(5-{3-[(pyrrolidin-3-yl)amino]-1H-pyrazolo[3,4-b]pyridin-4-yl}pyridin-2-yl)methyl]benzamide]		3.02 µM		4.47 µM
CC(C)(C)c1nc(C(=O)NCc2ccc(-c3ccnc4[nH]nc(C[C@H]5CCNC5)c34)cc2F)no1 [Example 274, (R)-5-tert-butyl-N-[(2-fluoro-4-{3-[(pyrrolidin-3-yl)methyl]-1H-pyrazolo[3,4-b]pyridin-4-yl}phenyl)methyl]-1,2,4-oxadiazole-3-carboxamide]		8.43 µM	0.147 µM	
CC(C)(C)c1nc(C(=O)NCc2ccc(-c3ccnc4[nH]nc(C5CCNC5)c34)cc2F)no1 (stereo not shown) [Example 278, 5-tert-butyl-N-({2-fluoro-4-[3-(pyrrolidin-3-yl)-1H-pyrazolo[3,4-b]pyridin-4-yl]phenyl}methyl)-1,2,4-oxadiazole-3-carboxamide]		7.86 µM	0.0935 µM	
CC(C)c1cc(C(=O)NCc2ccc(-c3ccnc4[nH]nc(N[C@@H]5CCCN(C(=O)N(C)C)[C@@H]5C)c34)cc2F)no1 [Example 305, (2R,3R)-3-({4-[3-fluoro-4-({[5-(propan-2-yl)-1,2-oxazole-3-carbonyl]amino}methyl)phenyl]-1H-pyrazolo[3,4-b]pyridin-3-yl}amino)-N,N,2-trimethylpiperidine-1-carboxamide]		9.58 µM	0.677 µM	
C=CC(=O)N[C@@H]1CCCC[C@H]1Nc1n[nH]c2nccc(-c3ccc(CNC(=O)c4cc(C(C)(C)C)on4)c(F)c3)c12 [Example 313, 5-tert-butyl-N-({2-fluoro-4-[3-({(1R,2R)-2-[(prop-2-enoyl)amino]cyclohexyl}amino)-1H-pyrazolo[3,4-b]pyridin-4-yl]phenyl}methyl)-1,2-oxazole-3-carboxamide]		5.23 µM	0.00874 µM	
C[C@@H]1[C@H](Nc2n[nH]c3nccc(-c4ccc(CNC(=O)c5cc(C(C)(C)O)on5)c(F)c4)c23)CCCN1C(=O)N(C)C [Example 316, (2R,3R)-3-({4-[3-fluoro-4-({[5-(2-hydroxypropan-2-yl)-1,2-oxazole-3-carbonyl]amino}methyl)phenyl]-1H-pyrazolo[3,4-b]pyridin-3-yl}amino)-N,N,2-trimethylpiperidine-1-carboxamide]		8.66 µM		
C[C@@H]1[C@H](Nc2n[nH]c3nccc(-c4ccc(CNC(=O)c5cc(C(C)(C)N)on5)c(F)c4)c23)CCCN1C(=O)N(C)C [Example 317, (2R,3R)-3-({4-[4-({[5-(2-aminopropan-2-yl)-1,2-oxazole-3-carbonyl]amino}methyl)-3-fluorophenyl]-1H-pyrazolo[3,4-b]pyridin-3-yl}amino)-N,N,2-trimethylpiperidine-1-carboxamide]		6.55 µM		
O=C(NCc1ccc(-c2ccnc3[nH]nc(NC4CCNC4)c23)cc1F)c1cc(Cl)on1 (stereo not shown) [Example 341, 5-chloro-N-[(2-fluoro-4-{3-[(pyrrolidin-3-yl)amino]-1H-pyrazolo[3,4-b]pyridin-4-yl}phenyl)methyl]-1,2-oxazole-3-carboxamide]		2.03 µM	0.901 µM	
CN(C)C(=O)N1CC[C@@H](Nc2n[nH]c3nccc(-c4ccc(CNC(=O)c5cc(Cl)on5)c(F)c4)c23)C1 [Example 343, 5-chloro-N-{[4-(3-{[(3R)-1-(dimethylcarbamoyl)pyrroli-din-3-yl]amino}-1H-pyrazolo[3,4-b]pyridin-4-yl)-2-fluorophenyl]methyl}-1,2-oxazole-3-carboxamide]		1.72 µM		
O=C(NCc1ccc(-c2ccnc3[nH]nc(N[C@@H]4CCNC4)c23)cc1F)c1cc(-c2ccccc2)on1 [Example 344, (R)-N-[(2-fluoro-4-{3-[(pyrrolidin-3-yl)amino]-1H-pyrazolo[3,4-b]pyridin-4-yl}phenyl)methyl]-5-phenyl-1,2-oxazole-3-carboxamide]		5.67 µM		
C[C@@H](NC(=O)c1cc(C(C)(C)O)on1)c1ccc(-c2ccnc3[nH]nc(NC4CCS(=O)(=O)CC4)c23)cc1 [Example 385, N-[(1R)-1-(4-{3-[(1,1-dioxo-1λ^6-thian-4-yl)amino]-1H-pyrazolo[3,4-b]pyridin-4-yl}phenyl)ethyl]-5-(2-hydroxypropan-2-yl)-1,2-oxazole-3-carboxamide]		9.78 µM		
C[C@@H](NC(=O)c1cc(C(C)(C)O)on1)c1ccc(-c2ccnc3[nH]nc(NC4CCCCC4)c23)cc1 [Example 399, N-[(1R)-1-{4-[3-(cyclohexylamino)-1H-pyrazolo[3,4-b]pyridin-4-yl]phenyl}ethyl]-5-(2-hydroxypropan-2-yl)-1,2-oxazole-3-carboxamide]		4.32 µM		9.27 µM
C[C@@H](NC(=O)c1cc(C(C)(C)O)on1)c1ccc(-c2ccnc3[nH]nc(NC4CCOCC4)c23)cc1 [Example 400, 5-(2-hydroxypropan-2-yl)-N-[(1R)-1-(4-{3-[(oxan-4-yl)amino]-1H-pyrazolo[3,4-b]pyridin-4-yl}phenyl)ethyl]-1,2-oxazole-3-carboxamide]		5.2 µM		
